# Literature values, collected in EP0268926A2, “Safened sorptive granular pesticidal resin compositions for controlling soil borne pests and process for the preparation thereof” (priority 1986, dated 1988).
# Tested on: rats
# Settings: technical pesticide
compound,measurement,value
"CCOP(=S)(OCC)SCSCC [phorate, O,O-diethyl-S-(ethylthiomethyl)phosphorodithioate]",acute oral LD50 value in rats,1.6-3.7 mg technical/kg
